The record followed here is paper PMC10156769, “The novel anti-cancer fluoropyrimidine NUC-3373 is a potent inhibitor of thymidylate synthase and an effective DNA-damaging agent” (Cancer Chemotherapy and Pharmacology, 2023).

Molecules are shown by their SMILES.

The target in assay [1] is T1, dUTPase (Deoxyuridine triphosphate nucleotidohydrolase) (Homo sapiens, UniProt P33316).
T1 construct: gene DUT
T1 sequence (P33316 70-252): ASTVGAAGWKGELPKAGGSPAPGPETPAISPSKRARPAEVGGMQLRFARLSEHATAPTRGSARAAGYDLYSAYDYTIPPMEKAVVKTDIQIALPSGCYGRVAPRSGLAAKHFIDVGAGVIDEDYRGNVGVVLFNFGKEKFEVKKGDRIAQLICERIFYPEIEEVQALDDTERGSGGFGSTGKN
The assay can be described thus: EnzChek pyrophosphate coupled assay, recombinant human dUTPase, product inhibition. The assay is classed as biochemical.

In assay [2] the target is T2, thymidylate synthase (TS) (Homo sapiens, UniProt P04818).
T2 construct: gene TYMS
T2 sequence (P04818 2-313): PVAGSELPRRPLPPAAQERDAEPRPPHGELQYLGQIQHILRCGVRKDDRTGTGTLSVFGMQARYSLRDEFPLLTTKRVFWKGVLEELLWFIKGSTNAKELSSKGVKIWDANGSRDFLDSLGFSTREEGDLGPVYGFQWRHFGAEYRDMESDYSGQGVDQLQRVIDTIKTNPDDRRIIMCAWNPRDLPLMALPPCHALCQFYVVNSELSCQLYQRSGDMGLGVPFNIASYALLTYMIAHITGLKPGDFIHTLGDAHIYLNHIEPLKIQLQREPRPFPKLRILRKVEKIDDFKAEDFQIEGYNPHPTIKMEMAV
Nature of the assay: western blot shift of TS ([…] to […] kDa, ternary complex) in HCT116 and SW480 cells treated with NUC-3373 or 5-FU. In kind it is cell-based.

What is called Ki is the dissociation constant of the complex between target and ligand, obtained from inhibition or displacement. Consider `O=c1ccn([C@H]2C[C@H](O)[C@@H](COP(=O)(O)O)O2)c(=O)[nH]1` [dUMP], for which, in assay [1], the Ki is 5.8 ± 1.4 µM.

Regarding `O=c1[nH]c(=O)n([C@H]2C[C@H](O)[C@@H](COP(=O)(O)O)O2)cc1F` [FdUMP], in assay [1], the Ki was 0.62 ± 0.05 µM. Further, in assay [2], the “western blot shift of TS (36 to 38 kDa, ternary complex) in HCT116 and SW480 cel” value is listed as “The binding of FdUMP to TS, causing inhibition of the enzyme, is determined by the presence of an upper band”.
